Data on 20 molecules can be found in patent US20260000698A1 (priority 2022, published 2026).

The test system of data set [1] is SARS-CoV-2 isolate USA-WA1/2020. Conditions: inhibition at 50 μM.
Data set [2] deals with T1, SARS-CoV-2 Nsp14 MTase (Severe acute respiratory syndrome coronavirus 2, UniProt P0DTD1). Briefly: biochemical. It is filed as biochemical.
The next data set deals with A549/ACE2/TMPRSS2 cells. Briefly: in vitro. Conditions: for CC50: NT (nontoxic): cell viability at 50 μM; for CC50: A549/ACE2/TMPRSS2 cells; for cytotoxicity: human, 100 μM. On the procedure: Percentage of infected cells was determined by dividing the number of infected cells by the total number of cells per well. The percentage of infected cells and total number of cells for each treatment was plotted into GraphPad prism (GraphPad Software; San Diego, CA, USA) to perform a non-linear regression analysis, generate infectious dose-response curves and to calculate EC50 and CC50 values.
Viability assays for the non-infected A549/ACE2/TMPRSS2 cells were performed using the 3-(4,5-dimethylthiazol-2-yl)-5-(3-carboxymethoxyphenyl)-2-(4-sulfophenyl)-2H-tetrazolium (MTS)-based tetrazolium reduction CellTiter 96 Aqueous Non-Radioactive cell proliferation assay (Promega G5430; Madison, WI) as described. Assays were conducted using parallel plates to those used in the immunofluorescence assay. Experimental details (cell line, number of cells seeded and incubation time) corresponded to those used in the immunofluorescence assay above. The data obtained were used to calculate the CC50 value using GraphPad Prism software.

Data set [3] concerns SARS-CoV-2 isolate USA-WA1/2020. Briefly: microbe, parasite or virus in culture. Conditions: Severe acute respiratory syndrome coronavirus 2, A549-ACE2, 48 h.
The target in data set [4] is T1, SARS-CoV-2 Nsp14 MTase. Briefly: Nsp14 MTase assay detected with MTase-Glo methyltransferase assay kit. The class given is biochemical. Particulars: for IC50: methylation reaction detected by MTase-Glo kit; for inhibition at 10 µM: read-out: MTase % inhibition at 10 μM. The method, then: Detection using MTase-Glo™ methyltransferase assay kits. The assay was run according to Promega MTase-Glo™ kit (V7601) instructions. […]. GpppA was purchased by New England Biolabs and used at a final concentration of 3 uM/reaction. […] […] Compounds, Nsp14, GpppA at MTase-Glo™ reagent were pre-incubated for 15 min at room temperature. The assay was started with addition of SAM at final concentration of 1 uM/reaction (negative control had no SAM). The assay plate was mixed well with a plate shaker after each addition. The reaction was incubated for 15 min at 30° C. MTase-Glo™ detection solution was added, and the plate was incubated 60 min at room temperature. Luminescence was read on an M5e spectrophotometer.

Where [5] appears, read: LC-MS/MS detection of SAH, read-out: MTase IC50.

As usually defined, the IC50 is the concentration that inhibits the measured activity by half. Turning to `Nc1ncnc2c1ncn2[C@@H]1O[C@H](CNCc2ccc3ccccc3c2)[C@@H](O)[C@H]1O` [Compound 1, (2R,3R,4S,5R)-2-(6-Amino-9H-purin-9-yl)-5-(((naphthalen-2-ylmethyl)amino)methyl)tetrahydrofuran-3,4-diol], the “EC50: NA (not active)” value in data set [1] is reported as “NA^a (NA, not active, <15% inhibition at 50 μM.)”. The half-inhibitory concentration (IC50) at SARS-CoV-2 Nsp14 MTase [2] (setting [5]) came to 9.6 µM. For the same molecule, the “CC50: NT (nontoxic)” value in the data set with A549/ACE2/TMPRSS2 cells is on record as “NT^b (NT, nontoxic, >95% cell viability at 50 μM;)”.

Turning to `Nc1ncnc2c1ncn2[C@@H]1O[C@H](CNC(=O)c2ccc3ccccc3c2)[C@@H](O)[C@H]1O` [Compound 2, N-(((2R,3S,4R,5R)-5-(6-Amino-9H-purin-9-yl)-3,4-dihydroxytetrahydrofuran-2-yl)methyl)-2-naphthamide], the “EC50: NA (not active)” value in data set [1] was “NA^a (NA, not active, <15% inhibition at 50 μM.)”. For the same molecule, at SARS-CoV-2 Nsp14 MTase [2] (setting [5]), the IC50 worked out at 2.7 µM. In addition, the “CC50: NT (nontoxic)” value with A549/ACE2/TMPRSS2 cells is “NT^b (NT, nontoxic, >95% cell viability at 50 μM;)”.

Consider `Nc1ncnc2c1ncn2[C@@H]1O[C@H](CNS(=O)(=O)c2ccc3cccnc3c2)[C@@H](O)[C@H]1O` [Compound 4, N-(((2R,3S,4R,5R)-5-(6-Amino-9H-purin-9-yl)-3,4-dihydroxytetrahydrofuran-2-yl)methyl)quinoline-7-sulfonamide], for which the “EC50: NA (not active)” value in data set [1] is listed as “NA^a (NA, not active, <15% inhibition at 50 μM.)”. Besides, the “MTase inhibitory activity” value at SARS-CoV-2 Nsp14 MTase [2] was “comparable to that of compound 1”. Besides, on SARS-CoV-2 Nsp14 MTase [2] (setting [5]), the IC50 came out at 0.069 µM. Also, the “CC50: NT (nontoxic)” value in the data set with A549/ACE2/TMPRSS2 cells is “NT^b (NT, nontoxic, >95% cell viability at 50 μM;)”.

As to `Nc1ncnc2c1ncn2[C@@H]1O[C@H](CNS(=O)(=O)c2ccc3nc(Cl)ccc3c2)[C@@H](O)[C@H]1O` [Compound 5, N-(((2R,3S,4R,5R)-5-(6-Amino-9H-purin-9-yl)-3,4-dihydroxytetrahydrofuran-2-yl)methyl)-2-chloroquinoline-6-sulfonamide], the “EC50: NA (not active)” value in data set [1] is given as “NA^a (NA, not active, <15% inhibition at 50 μM.)”. In addition, on SARS-CoV-2 Nsp14 MTase [2] (setting [5]), the IC50 came to 0.44 µM. In addition, on SARS-CoV-2 Nsp14 MTase [2] (on replacing 2-naphthalene), the “fold reduction in inhibitory activity” value was 7 fold. The “CC50: NT (nontoxic)” value with A549/ACE2/TMPRSS2 cells was “NT^b (NT, nontoxic, >95% cell viability at 50 μM;)”.

Broadly, the CC50 is the concentration giving 50% cytotoxicity. As to `CC(=O)Nc1ncnc2c1ncn2[C@@H]1O[C@H](CNS(=O)(=O)c2ccc3ccccc3c2)[C@@H](O)[C@H]1O` [Compound 6, N-(9-((2R,3R,4S,5R)-3,4-Dihydroxy-5-((naphthalene-2-sulfonamido)methyl)tetrahydrofuran-2-yl)-9H-purin-6-yl)acetamide], the “EC50: NA (not active)” value in data set [1] was “NA^a (NA, not active, <15% inhibition at 50 μM.)”. In addition, the IC50 at SARS-CoV-2 Nsp14 MTase [2] (LC-MS/MS assay, read-out: IC50) turned out to be 0.048 µM. Moreover, in the data set with A549/ACE2/TMPRSS2 cells, the half-maximal cytotoxic concentration (CC50) was above 100 µM.

As a reminder, the EC50 is the concentration needed to bring the measured effect to its halfway point. The low end stands for greater potency, the high end for weaker potency. `CC(=O)O[C@@H]1[C@H](OC(C)=O)[C@@H](CNS(=O)(=O)c2ccc3ccccc3c2)O[C@H]1n1cnc2c(N)ncnc21` [Compound 8, (2R,3R,4R,5R)-2-(6-Amino-9H-purin-9-yl)-5-((naphthalene-2-sulfonamido)methyl)tetrahydrofuran-3,4-diyl diacetate]: in data set [3], the EC50 was 53 µM. In addition, in the data set on A549/ACE2/TMPRSS2 cells, the CC50 was above 100 µM and the “cytotoxicity” value was “minimal cytotoxicity at 100 μM”.

`CC(=O)Nc1ncnc2c1ncn2[C@@H]1O[C@H](CNS(=O)(=O)c2ccc3ccccc3c2)[C@@H](OC(C)=O)[C@H]1OC(C)=O` [Compound 9, (2R,3R,4R,5R)-2-(6-Acetamido-9H-purin-9-yl)-5-((naphthalene-2-sulfonamido)methyl)tetrahydrofuran-3,4-diyl diacetate] came in with a concentration giving a half-maximal response (EC50) in data set [3] of 61 µM. Also, in the data set with A549/ACE2/TMPRSS2 cells, the cytotoxic concentration (CC50) is above 100 µM and the “cytotoxicity” value is given as “minimal cytotoxicity at 100 μM”.

Turning to `Nc1ncnn2c([C@@H]3O[C@H](CNS(=O)(=O)c4ccc5c(Cl)cccc5c4)[C@@H](O)[C@H]3O)ccc12` [Compound 39, N-(((2R,3S,4R,5S)-5-(4-aminopyrrolo[2,1-f][1,2,4]triazin-7-yl)-3,4-dihydroxytetrahydrofuran-2-yl)methyl)-5-chloronaphthalene-2-sulfonamide], the half-inhibitory concentration (IC50) on SARS-CoV-2 Nsp14 MTase [4] came out at 0.049 µM.

For orientation: inhibition means how much of the control response was suppressed. In the case of `COc1ccc(S(=O)(=O)NC[C@H]2O[C@@H](c3ccc4c(N)ncnn34)[C@H](O)[C@@H]2O)cc1C#N` [Compound 41, N-(((2R,3S,4R,5S)-5-(4-aminopyrrolo[2,1-f][1,2,4]triazin-7-yl)-3,4-dihydroxytetrahydrofuran-2-yl)methyl)-3-cyano-4-methoxybenzenesulfonamide], the inhibition at 10 µM on SARS-CoV-2 Nsp14 MTase [4] came to 94%.

As to `COc1ccc(S(=O)(=O)NC[C@H]2O[C@@H](c3ccc4c(N)ncnn34)[C@H](O)[C@@H]2O)cc1[N+](=O)[O-]` [Compound 43, N-(((2R,3S,4R,5S)-5-(4-aminopyrrolo[2,1-f][1,2,4]triazin-7-yl)-3,4-dihydroxytetrahydrofuran-2-yl)methyl)-4-methoxy-3-nitrobenzenesulfonamide], on SARS-CoV-2 Nsp14 MTase [4], the inhibition at 10 µM is 79%.

Take `Nc1ncnn2c([C@@H]3O[C@H](CNS(=O)(=O)c4cccc(-c5ccccc5)c4)[C@@H](O)[C@H]3O)ccc12` [Compound 45, N-(((2R,3S,4R,5S)-5-(4-Aminopyrrolo[2,1-f][1,2,4]triazin-7-yl)-3,4-dihydroxytetrahydrofuran-2-yl)methyl)-[1,1′-biphenyl]-3-sulfonamide]: the inhibition at 10 µM on SARS-CoV-2 Nsp14 MTase [4] turned out to be 85%.

Turning to `Nc1ncnn2c([C@@H]3O[C@H](CNS(=O)(=O)c4ccc(-c5ccccc5)cc4)[C@@H](O)[C@H]3O)ccc12` [Compound 47, N-(((2R,3S,4R,5S)-5-(4-Aminopyrrolo[2,1-f][1,2,4]triazin-7-yl)-3,4-dihydroxytetrahydrofuran-2-yl)methyl)-[1,1′-biphenyl]-4-sulfonamide], the inhibition at 10 µM on SARS-CoV-2 Nsp14 MTase [4] turned out to be 85%.

`Nc1ncnn2c([C@@H]3O[C@H](CNS(=O)(=O)c4ccc5ccccc5c4)[C@@H](O)[C@H]3O)cc(F)c12` [Compound 51, N-(((2R,3S,4R,5S)-5-(4-Amino-5-fluoropyrrolo[2,1-f][1,2,4]triazin-7-yl)-3,4-dihydroxytetrahydrofuran-2-yl)methyl)naphthalene-2-sulfonamide] registered a 50% inhibitory concentration (IC50) against SARS-CoV-2 Nsp14 MTase [4] of 0.032 µM.

`CCN(C[C@H]1O[C@@H](c2ccc3c(N)ncnn23)[C@H](O)[C@@H]1O)S(=O)(=O)c1ccc2ccccc2c1` [Compound 53, N-(((2R,3S,4R,5S)-5-(4-Aminopyrrolo[2,1-f][1,2,4]triazin-7-yl)-3,4-dihydroxytetrahydrofuran-2-yl)methyl)-N-ethylnaphthalene-2-sulfonamide] showed an IC50 against SARS-CoV-2 Nsp14 MTase [4] of 0.156 µM.

Turning to `Nc1ncnc2c([C@@H]3O[C@H](CNS(=O)(=O)c4ccc5ccccc5c4)[C@@H](O)[C@H]3O)csc12` [Compound B12, N-(((2R,3S,4R,5S)-5-(4-Aminothieno[3,2-d]pyrimidin-7-yl)-3,4-dihydroxytetrahydrofuran-2-yl)methyl)naphthalene-2-sulfonamide], the inhibition at 10 µM on SARS-CoV-2 Nsp14 MTase [4] amounted to 91%.

On to `Nc1ncnc2c1ccn2[C@@H]1O[C@H](CNS(=O)(=O)c2ccc3ccccc3c2)[C@@H](O)[C@H]1O` [Compound C9, N-(((2R,3S,4R,5R)-5-(4-Amino-7H-pyrrolo[2,3-d]pyrimidin-7-yl)-3,4-dihydroxytetrahydrofuran-2-yl)methyl)naphthalene-2-sulfonamide], for which the midpoint of inhibition against SARS-CoV-2 Nsp14 MTase [4], the IC50, lay at 0.019 µM.

For the molecule `COc1ccc(S(=O)(=O)NC[C@H]2O[C@@H](n3ccc4c(N)ncnc43)[C@H](O)[C@@H]2O)cc1C#N` [Compound C11, N-(((2R,3S,4R,5R)-5-(4-Amino-7H-pyrrolo[2,3-d]pyrimidin-7-yl)-3,4-dihydroxytetrahydrofuran-2-yl)methyl)-3-cyano-4-methoxybenzenesulfonamide], the inhibition at 10 µM on SARS-CoV-2 Nsp14 MTase [4] was 98%.

For the molecule `CCN(C[C@H]1O[C@@H](n2ccc3c(N)ncnc32)[C@H](O)[C@@H]1O)S(=O)(=O)c1ccc(OC)c(C#N)c1` [Compound C13, N-(((2R,3S,4R,5R)-5-(4-Amino-7H-pyrrolo[2,3-d]pyrimidin-7-yl)-3,4-dihydroxytetrahydrofuran-2-yl)methyl)-3-cyano-N-ethyl-4-methoxybenzenesulfonamide], the inhibition at 10 µM at SARS-CoV-2 Nsp14 MTase [4] was 100%.

`CCC(CC)COC(=O)[C@H](C)N[P@](=O)(OC[C@H]1O[C@@](C#N)(c2ccc3c(N)ncnn23)[C@H](O)[C@@H]1O)Oc1ccccc1` [remdesivir, reference compound] returned an EC50 in data set [3] of 0.093 µM. The same molecule had a 50% cytotoxic concentration (CC50) in the data set with A549/ACE2/TMPRSS2 cells of 43 µM.

Turning to `Nc1ncnc2c1ncn2[C@@H]1O[C@H](C[C@@H](N)CC[C@H](N)C(=O)O)[C@@H](O)[C@H]1O` [sinefungin, reference compound], the “EC50: NA (not active)” value in data set [1] is on record as “NA^a (NA, not active, <15% inhibition at 50 μM.)”. Also, the “CC50: NT (nontoxic)” value with A549/ACE2/TMPRSS2 cells was “NT^b (NT, nontoxic, >95% cell viability at 50 μM;)”.
